Measured values from ChEMBL document CHEMBL5316300, “Discovery of TP0597850: A Selective, Chemically Stable, and Slow Tight-Binding Matrix Metalloproteinase-2 Inhibitor with a Phenylbenzamide-Pentapeptide Hybrid Scaffold” (J Med Chem, 2023).
Square brackets hold non-standard residues; d marks the D form. Peptide text beside a SMILES is read from it. * marks the point of attachment. Benzoyl(4-OPh(4-CONH2)) = NC(=O)c1ccc(Oc2ccc(C(=O)*)cc2)cc1; NMeI = CC[C@H](C)[C@H](NC)C(=O)O; NMeE = CN[C@@H](CCC(=O)O)C(=O)O; β3hP = O=C(O)C[C@@H]1CCCN1; Dab = NCC[C@H](N)C(=O)O; Ava = NCCCCC(=O)O

Key:
Collagenase 3 = Collagenase 3 (Homo sapiens, UniProt P45452); experiment: Inhibition of human recombinant MMP13 using MOCAc-Lys-Pro-Leu-Gly-Leu-A2pr(Dnp)-Ala-Arg-N2 as substrate preincubated for 10 to 15 mins followed by substrate addition and measured after 60 to 120 mins by fluorescence based assay
[1] = molecular target: Macrophage metalloelastase (Homo sapiens, UniProt P39900); experiment: Inhibition of human recombinant MMP12 using MOCAc-Lys-Pro-Leu-Gly-Leu-A2pr(Dnp)-Ala-Arg-N2 as substrate preincubated for 10 to 15 mins followed by substrate addition and measured after 60 to 120 mins by fluorescence based assay
Macrophage metalloelastase, sequence (P39900 whole entry): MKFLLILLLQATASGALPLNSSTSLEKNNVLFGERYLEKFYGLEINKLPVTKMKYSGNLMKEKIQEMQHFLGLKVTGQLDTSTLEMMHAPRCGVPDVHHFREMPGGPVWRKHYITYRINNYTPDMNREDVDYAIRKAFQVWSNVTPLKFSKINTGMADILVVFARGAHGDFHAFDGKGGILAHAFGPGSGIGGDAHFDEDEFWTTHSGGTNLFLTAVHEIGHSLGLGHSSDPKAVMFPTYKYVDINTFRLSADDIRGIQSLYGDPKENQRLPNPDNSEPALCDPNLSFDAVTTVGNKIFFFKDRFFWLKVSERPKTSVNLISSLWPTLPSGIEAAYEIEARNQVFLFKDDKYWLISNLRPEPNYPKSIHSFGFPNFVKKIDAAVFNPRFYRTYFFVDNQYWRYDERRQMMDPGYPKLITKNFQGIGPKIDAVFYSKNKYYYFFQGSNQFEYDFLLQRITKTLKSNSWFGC

[2] = molecular target: MMP-2/MMP-13 (Homo sapiens) (UniProt P08253+P45452); experiment: Selectivity ratio of IC50 for recombinant human MMP13 to IC50 for recombinant human MMP2; assay type: protein assay
MMP-2/MMP-13 (Homo sapiens), sequence (P08253 whole entry, looked up, other chains not shown): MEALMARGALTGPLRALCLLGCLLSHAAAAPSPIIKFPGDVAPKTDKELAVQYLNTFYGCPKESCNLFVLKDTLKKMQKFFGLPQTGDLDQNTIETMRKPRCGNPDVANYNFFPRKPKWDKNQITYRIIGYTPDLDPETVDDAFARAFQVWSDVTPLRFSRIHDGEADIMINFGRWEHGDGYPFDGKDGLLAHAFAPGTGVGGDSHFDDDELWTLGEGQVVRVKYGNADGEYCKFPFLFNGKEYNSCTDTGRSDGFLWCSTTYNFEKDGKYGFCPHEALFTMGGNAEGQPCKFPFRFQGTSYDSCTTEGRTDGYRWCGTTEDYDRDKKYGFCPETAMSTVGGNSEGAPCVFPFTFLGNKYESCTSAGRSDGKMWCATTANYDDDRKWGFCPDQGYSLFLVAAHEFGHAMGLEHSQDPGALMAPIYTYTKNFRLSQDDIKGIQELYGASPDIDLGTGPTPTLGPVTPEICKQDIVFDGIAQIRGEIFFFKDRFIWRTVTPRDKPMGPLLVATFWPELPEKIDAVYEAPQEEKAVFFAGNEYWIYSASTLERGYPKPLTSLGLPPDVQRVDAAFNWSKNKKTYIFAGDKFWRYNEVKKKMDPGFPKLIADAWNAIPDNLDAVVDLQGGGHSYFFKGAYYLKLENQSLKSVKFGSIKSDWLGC

[3] = molecular target: T1, 72 kDa type IV collagenase (Homo sapiens, UniProt P08253); experiment: Inhibition of recombinant human MMP2 using MOCAc-Lys-Pro-Leu-Gly-Leu-A2pr(Dnp)-Ala-Arg-N2 as substrate preincubated for 10 to 15 mins followed by substrate addition and measured after 60 to 120 mins by fluorescence based assay
T1 sequence (P08253 whole entry): as the sequence (P08253 whole entry, looked up, other chains not shown) above

Homo sapiens = organism: Homo sapiens; experiment: Selectivity ratio of IC50 for recombinant human MMP12 to IC50 for recombinant human MMP2
[4] = molecular target: T1, 72 kDa type IV collagenase; experiment: Inhibition of MMP2 (unknown origin)
[5] = Chemical stability of the compound in phosphate buffer at pH 9 assessed as residual rate incubated for 2 weeks by HPLC analysis; assay type: physicochemical; details: read-out: Stability
[6] = Chemical stability of the compound in phosphate buffer at pH 7.4 assessed as residual rate incubated for 2 weeks by HPLC analysis; assay type: physicochemical; details: read-out: Stability
[7] = Chemical stability of the compound in phosphate buffer at pH 4 assessed as residual rate incubated for 2 weeks by HPLC analysis; assay type: physicochemical; details: read-out: Stability

Ki [3]	IC50 [1]	Compound	IC50 (Collagenase 3)	IC50 ([1]; read-out: IC50)	Ratio IC50 [2]	IC50 [3]	Ratio IC50 (Homo sapiens)	IC50 [4]	remaining at 336 h [5]	remaining at 336 h [6]	remaining at 336 h [7]
		CC(C)C[C@H](NC(=O)[C@@H]1CCCN1C(=O)CC[C@@H](NS(=O)(=O)c1ccc(NC(=O)c2ccc(C(N)=O)cc2)cc1)C(=O)O)C(=O)N(C)[C@@H](CCC(=O)O)C(=O)NCCCCC(N)=O	50 nM	52 nM	160	0.31 nM	170				
		CC[C@H](C)[C@@H](C(=O)N1CCC[C@H]1CC(N)=O)N(C)C(=O)[C@H](CC(C)C)NC(=O)[C@H](CCN)NC(=O)CC[C@@H](NS(=O)(=O)c1ccc(NC(=O)c2ccc(Cl)cc2)cc1)C(=O)O	160 nM	200 nM	370	0.43 nM	470				
		CC[C@H](C)[C@@H](C(=O)NCCCCCC(N)=O)N(C)C(=O)[C@H](CC(C)C)NC(=O)[C@H](CCN)NC(=O)CC[C@@H](NS(=O)(=O)c1ccc(NC(=O)c2ccc(Cl)cc2)cc1)C(=O)O	280 nM	260 nM	2800	0.1 nM	2600				
		CC[C@H](C)[C@@H](C(=O)NCCCCC(N)=O)N(C)C(=O)[C@H](CC(C)C)NC(=O)[C@@H]1CNCCN1C(=O)CC[C@@H](NS(=O)(=O)c1ccc(NC(=O)c2ccc(Cl)cc2)cc1)C(=O)O	370 nM	78 nM	550	0.67 nM	120				
		CC[C@H](C)[C@@H](C(=O)N1CCC[C@H]1CC(N)=O)N(C)C(=O)[C@H](CC(C)C)NC(=O)[C@H](CCN)NC(=O)[C@H](CC(=O)O)NC(=O)[C@H](CCC(=O)O)NC(=O)CCCCNC(=O)c1ccc(Oc2ccc(C(N)=O)cc2)cc1 ({Benzoyl(4-OPh(4-CONH2))-Ava}-ED[Dab]L[NMeI][β3hP]-NH2)						0.18 nM			
		CC[C@H](C)[C@@H](C(=O)NCCCCC(N)=O)N(C)C(=O)[C@H](CC(C)C)NC(=O)[C@H](CCN)NC(=O)CC[C@@H](NS(=O)(=O)c1ccc(NC(=O)c2ccc(C(N)=O)cc2)cc1)C(=O)O	690 nM	410 nM	3100	0.22 nM	1900		47.6%	88.8%	98.3%
		CC[C@H](C)[C@@H](C(=O)NCCCCC(N)=O)N(C)C(=O)[C@H](CC(C)C)NC(=O)[C@@H]1C[C@H](N)CN1C(=O)CC[C@@H](NS(=O)(=O)c1ccc(NC(=O)c2ccc(C(N)=O)cc2)cc1)C(=O)O			860		550				
		CC[C@H](C)[C@@H](C(=O)NCCCCC(N)=O)N(C)C(=O)[C@H](CC(C)C)NC(=O)[C@H](CCN)NC(=O)CC[C@@H](NS(=O)(=O)c1ccc(NC(=O)c2ccc(Cl)cc2)cc1)C(=O)O	310 nM	180 nM	2800	0.11 nM	1600				
		CC[C@H](C)[C@@H](C(=O)N1CCC[C@H]1CC(N)=O)N(C)C(=O)[C@H](CC(C)C)NC(=O)[C@H](CCN)NC(=O)CC[C@@H](NS(=O)(=O)c1ccc(NC(=O)c2ccccc2)cc1)C(=O)O	630 nM	990 nM	850	0.74 nM	1300				
		CC[C@H](C)[C@@H](C(=O)N1CCC[C@H]1CC(N)=O)N(C)C(=O)[C@H](CC(C)C)NC(=O)[C@H](CCN)NC(=O)CC[C@@H](NS(=O)(=O)c1ccc(NC(=O)c2ccc(C(N)=O)cc2)cc1)C(=O)O	280 nM	400 nM	670	0.42 nM	950				
		CC[C@H](C)[C@@H](C(=O)NCCC(N)=O)N(C)C(=O)[C@H](CC(C)C)NC(=O)[C@H](CCN)NC(=O)CC[C@@H](NS(=O)(=O)c1ccc(NC(=O)c2ccc(Cl)cc2)cc1)C(=O)O	280 nM	240 nM	1400	0.2 nM	1200				
		CC[C@H](C)[C@@H](C(=O)N1CCC[C@H]1CC(N)=O)N(C)C(=O)[C@H](CC(C)C)NC(=O)[C@H](CCN)NC(=O)CC[C@@H](NS(=O)(=O)c1ccc(-c2ccccc2)cc1)C(=O)O	230 nM	240 nM	37	6.2 nM	39				
21 nM		H-ISYGNDALMP-OH									
		CC[C@H](C)[C@@H](C(=O)NCCCC(N)=O)N(C)C(=O)[C@H](CC(C)C)NC(=O)[C@H](CCN)NC(=O)CC[C@@H](NS(=O)(=O)c1ccc(NC(=O)c2ccc(Cl)cc2)cc1)C(=O)O	280 nM	230 nM	1800	0.16 nM	1400				
		CC(C)C[C@H](NC(=O)[C@H](CCN)NC(=O)[C@H](CC(=O)O)NC(=O)[C@H](CCC(=O)O)NC(=O)CCCCNC(=O)c1ccc(Oc2ccc(C(N)=O)cc2)cc1)C(=O)N(C)[C@@H](CCC(=O)O)C(=O)N1CCC[C@H]1CC(N)=O ({Benzoyl(4-OPh(4-CONH2))-Ava}-ED[Dab]L[NMeE][β3hP]-NH2)							87.7%	89%	69.5%
	Not Active	CC[C@H](C)[C@@H](C(=O)N1CCC[C@H]1CC(N)=O)N(C)C(=O)[C@H](CC(C)C)NC(=O)[C@H](CCN)NC(=O)CC[C@@H](NS(=O)(=O)c1ccc(Oc2ccccc2)cc1)C(=O)O				> 10 nM					
